Test systems include CCRF-CEM leukemia; HL-60(TB) leukemia; HT29 colon; IGROV1 ovarian; K-562 leukemia; LOX IMVI melanoma; SF-295 CNS; SK-MEL-5 melanoma; SK-OV-3 ovarian; UACC-62 melanoma.
Common to all, as to test: NCI anticancer screen, dose series, 48 h

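How tested: cells in 96-well plates exposed to compound for 48 hours at five concentrations. GI50 marks 50% less growth. TGI is the concentration that stops growth completely.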 Where a SMILES comes first, the peptide text is derived from it. [ ]: non-standard residue; d: D form. The star is where a group is joined. ξ: configuration not given here. ξF = NC(Cc1ccccc1)C(=O)O; Cbz = O=C(OCc1ccccc1)*; Aib = CC(C)(N)C(=O)O

Regarding `COC(=O)C(C)(C)NC(=O)C(Cc1ccccc1)NC(=O)C(C)(C)NC(=O)OCc1ccccc1` (stereo not given) (Cbz-[Aib]-[ξF]-[Aib]-OMe), the TGI in the experiment with CCRF-CEM leukemia, in the experiment on HL-60(TB) leukemia, in the experiment on HT29 colon, in the experiment on IGROV1 ovarian, with K-562 leukemia and in the experiment on LOX IMVI melanoma was over 100 µM each time. Also, the TGI in the experiment on SF-295 CNS, in the experiment on SK-MEL-5 melanoma, in the experiment on SK-OV-3 ovarian and in the experiment with UACC-62 melanoma was over 100 µM in each case.
On to `CC(=O)ON1C(=O)c2cccc3cccc(c23)C1=O`, for which the TGI with CCRF-CEM leukemia is over 100 µM; in the experiment with HL-60(TB) leukemia, 45.5 µM; with HT29 colon, over 100 µM; in the experiment on IGROV1 ovarian it was over 100 µM; with K-562 leukemia it was over 100 µM; in the experiment on LOX IMVI melanoma it was 57.3 µM. Also, the TGI is over 100 µM with SF-295 CNS, 28.2 µM in the experiment on SK-MEL-5 melanoma, over 100 µM in the experiment on SK-OV-3 ovarian and 52.5 µM in the experiment with UACC-62 melanoma.
Consider `CC(C)(CCCCC(C)(C)C1NC(=O)N1)C1NC(=O)N1`, for which the TGI with CCRF-CEM leukemia, in the experiment with HL-60(TB) leukemia, in the experiment on HT29 colon, with IGROV1 ovarian, in the experiment with K-562 leukemia and in the experiment with LOX IMVI melanoma was over 10 µM each time. Also, the TGI in the experiment on SF-295 CNS, with SK-MEL-5 melanoma, in the experiment with SK-OV-3 ovarian and in the experiment on UACC-62 melanoma was over 10 µM in each case.
For the molecule `Nc1c(-c2ccccc2[N+](=O)[O-])nc2ccccn12`, the TGI in the experiment with CCRF-CEM leukemia, with HL-60(TB) leukemia, in the experiment on HT29 colon, in the experiment on IGROV1 ovarian, in the experiment on K-562 leukemia and with LOX IMVI melanoma was over 100 µM in each case. In addition, the TGI with SF-295 CNS, with SK-MEL-5 melanoma, with SK-OV-3 ovarian and in the experiment on UACC-62 melanoma was over 100 µM each time.
As to `CCOC(=O)CCC(NC(=O)OCc1ccccc1)C(=O)NC(CCC(=O)OCC)C(=O)NNC(=O)OC(C)(C)C` (stereo not given), the TGI with CCRF-CEM leukemia, in the experiment on HL-60(TB) leukemia, with IGROV1 ovarian, in the experiment on K-562 leukemia, with SF-295 CNS and in the experiment on SK-MEL-5 melanoma was over 100 µM in each case. Also, the TGI with SK-OV-3 ovarian and in the experiment on UACC-62 melanoma was over 100 µM throughout.
Take `c1cncc(O[Si](Oc2cccnc2)(Oc2cccnc2)Oc2cccnc2)c1`: the TGI with HT29 colon, in the experiment with IGROV1 ovarian, in the experiment on LOX IMVI melanoma, in the experiment on SF-295 CNS, with SK-MEL-5 melanoma and with SK-OV-3 ovarian was over 100 µM throughout. The molecule further yielded a TGI in the experiment on UACC-62 melanoma of over 100 µM.
For the molecule `COc1cc(-c2n/c(=C\c3c(O)[nH]c4cc(Cl)ccc34)cc3c2=Nc2ccccc2-3)cc(OC)c1OC`, the GI50 in the experiment on CCRF-CEM leukemia is 3.88 µM; in the experiment with HL-60(TB) leukemia it was 84.4 µM; in the experiment on HT29 colon, 2670 nM; in the experiment on IGROV1 ovarian, 5.56 µM; with K-562 leukemia, 3.57 µM; in the experiment with LOX IMVI melanoma, 2760 nM. Further, the GI50 is 2170 nM in the experiment with SF-295 CNS, 3.98 µM in the experiment on SK-MEL-5 melanoma, 3.8 µM with SK-OV-3 ovarian and 3.4 µM with UACC-62 melanoma. Moreover, the TGI in the experiment on CCRF-CEM leukemia is over 100 µM; in the experiment on HL-60(TB) leukemia, over 100 µM; in the experiment with HT29 colon, 7.05 µM; in the experiment on IGROV1 ovarian, 51.1 µM; in the experiment with K-562 leukemia it was 48.6 µM; in the experiment with LOX IMVI melanoma, 16 µM. Besides, the TGI with SF-295 CNS was 5.19 µM; with SK-MEL-5 melanoma, 23 µM; in the experiment with SK-OV-3 ovarian it was 11.3 µM; in the experiment on UACC-62 melanoma, 14.1 µM.

Values taken from PubChem BioAssay (NCI).
